In general, IC50 refers to the concentration needed to halve the response being measured. The low end stands for higher potency, the high end for lower potency.

Data on six molecules can be found in BindingDB's records for doi:10.1021/jm00153a007 (1986).

The assay has as its target Prostacyclin synthase (Sus scrofa). Nature of the assay: Inhibition of PGI-2 synthetase from porcine aorta.

As to `CC(C)c1c(Cn2ccnc2)c2ccccc2n1CCC(=O)O` [3-(3-Imidazol-1-ylmethyl-2-isopropyl-indol-1-yl)-propionic acid], the IC50 is above 100 µM.
Then `Cc1c(Cn2ccnc2)c2ccccc2n1/C=C/C(=O)O` [3-(3-Imidazol-1-ylmethyl-2-methyl-indol-1-yl)-acrylic acid], with above 100 µM; and `O=C(O)CCn1cc(Cn2ccnc2)c2ccc(C(F)(F)F)cc21` [3-(3-Imidazol-1-ylmethyl-6-trifluoromethyl-indol-1-yl)-propionic acid], with above 100 µM.
Molecule `O=C(O)CCn1cc(Cn2ccnc2)c2cc(Br)ccc21` [3-(5-Bromo-3-imidazol-1-ylmethyl-indol-1-yl)-propionic acid] registered an IC50 above 100 µM.
Then `O=C(O)CCn1cc(Cn2ccnc2)c2cc(Cl)ccc21` [3-(5-Chloro-3-imidazol-1-ylmethyl-indol-1-yl)-propionic acid], with above 100 µM; and `CN(C)c1ccc2c(c1)c(Cn1ccnc1)cn2CCC(=O)O` [3-(5-Dimethylamino-3-imidazol-1-ylmethyl-indol-1-yl)-propionic acid], with above 100 µM.
